According to US6960586B2, “Imidazole derivatives, process for their preparation and their use” (Takeda Pharmaceutical Company Limited, priority 2000, dated 2005):

Legend:
testosterone synthesis = assay: Assay of inhibitory activity on testosterone synthesis in rats; format: in vivo, rat; settings: 25 mg/kg orally, male SD rats, serum testosterone two hours after administration, relative to control group
Procedure: Assay of Inhibitory Activity on Testosterone Synthesis in Rats
Test compounds (25 mg/kg) were orally administered to 9-week-old male SD (Sprague Dawley) rats. Two hours after administration of the compounds, blood was drawn and testosterone concentration in the obtained serum was measured by radioimmunoassay. The percentage (T/C, %) of the testosterone concentration of test compounds administration group to that of the control group was calculated, and taken as the inhibitory activity on testosterone synthesis.

Rat Steroid C17,20-lyase = target: T1, Rat Steroid C17,20-lyase (Rattus norvegicus, UniProt P11715); assay: Assay of inhibitory activity on rat steroid C17,20-lyase (testis microsomes); format: biochemical; settings: 10 nM [1,2-3H]-17α-hydroxyprogesterone, 37° C., 7 minutes
T1 construct: Testes were excised from 10- to 13-week-old male SD rats, homogenized, and centrifuged to give microsomes; from tissue; host or cells: testis microsomes of male SD rats
T1 sequence (P11715 1-507): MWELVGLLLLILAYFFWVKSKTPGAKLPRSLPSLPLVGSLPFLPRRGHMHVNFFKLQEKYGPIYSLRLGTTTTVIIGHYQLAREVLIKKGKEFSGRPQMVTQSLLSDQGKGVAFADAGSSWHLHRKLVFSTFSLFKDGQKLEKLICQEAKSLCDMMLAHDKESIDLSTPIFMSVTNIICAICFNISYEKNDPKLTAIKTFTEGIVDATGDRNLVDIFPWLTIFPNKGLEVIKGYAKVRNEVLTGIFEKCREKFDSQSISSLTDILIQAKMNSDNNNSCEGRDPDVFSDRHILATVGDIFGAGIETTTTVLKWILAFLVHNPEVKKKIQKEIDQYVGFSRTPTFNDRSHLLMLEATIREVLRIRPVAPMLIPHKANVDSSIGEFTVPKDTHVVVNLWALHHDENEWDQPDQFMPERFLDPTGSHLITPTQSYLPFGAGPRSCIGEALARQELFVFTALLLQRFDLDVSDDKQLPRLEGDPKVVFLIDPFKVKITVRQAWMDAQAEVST
Procedure: Assay of Inhibitory Activity on Rat Steroid C17,20-lyase
The activity was determined according to The Prostate, vol. 26, 140-150 (1995).
Testes were excised from 10- to 13-week-old male SD rats, homogenized, and centrifuged to give microsomes. [1,2-^3H]-17α-hydroxyprogesterone having a final concentration of 10 nM, NADPH solution and test compounds were dissolved in 10 μl of 100 mM phosphate buffer (pH 7.4) and microsome protein (7 μg/10 μl) was added. The reaction mixture was incubated at 37° C. for 7 minutes. Ethyl acetate (40 μl) was added and the mixture was centrifuged. The substrate and the products (androstenedione and testosterone) in the supernatant were separated by silica gel thin layer chromatography (TLC). The spots were detected and quantitatively determined by BAS 2000 Bioimage analyzer. The concentration of the test compounds necessary to reduce the amount of the products by 50% (IC50) relative to the amount of the products without test compound (control) as 100% was calculated, and shown in Table 1.

human CYP3A4 = target: T2, human CYP3A4 (Homo sapiens, UniProt P08684); assay: Assay of human CYP3A4-inhibitory activity; format: in vitro ADME; settings: testosterone 100 μM as substrate, 6β-hydroxytestosterone formation, 37° C., 30 min
T2 construct: purchased GENTEST
T2 sequence (P08684 whole entry): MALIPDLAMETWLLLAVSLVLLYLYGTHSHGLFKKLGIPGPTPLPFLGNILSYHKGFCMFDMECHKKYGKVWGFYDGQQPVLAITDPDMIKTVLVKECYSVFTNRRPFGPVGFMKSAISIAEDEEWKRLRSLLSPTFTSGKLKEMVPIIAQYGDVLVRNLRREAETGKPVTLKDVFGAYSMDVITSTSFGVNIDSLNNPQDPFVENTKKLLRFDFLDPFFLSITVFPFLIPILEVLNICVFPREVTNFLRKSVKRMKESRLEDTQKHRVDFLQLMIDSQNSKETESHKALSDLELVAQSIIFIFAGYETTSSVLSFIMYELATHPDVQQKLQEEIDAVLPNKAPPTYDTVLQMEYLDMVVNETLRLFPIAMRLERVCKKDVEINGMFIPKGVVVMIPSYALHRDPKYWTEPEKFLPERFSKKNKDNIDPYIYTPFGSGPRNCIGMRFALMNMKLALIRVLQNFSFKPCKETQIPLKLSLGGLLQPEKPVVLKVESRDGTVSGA
Procedure: Assay of Human CYP3A4-Inhibitory Activity
Performed as in the following according to Journal of Biological Chemistry, vol. 256, 11937 (1983).
A phosphate buffer solution (50 mM, pH 7.4) containing testosterone (final concentration 100 μM, hereinafter the same), human CYP3A4 (10 pmol/ml, manufactured by GENTEST), NADPH producing system (0.5 mM NADP, 5 mM glucose-6-phosphate, 5 mM magnesium chloride, 1.5 units/ml glucose-6-phosphate dehydrogenase) and the test compound was incubated at 37° C. for 30 min. Acetonitrile was added to the reaction mixture and the mixture was stirred and centrifuged. The 6β-hydroxytestosterone in the obtained supernatant was analyzed by high performance liquid chromatography. The concentration (IC50) of the compound necessary for 50% inhibition was calculated taking the production amount without addition of the test compound as 100%.

Row | SMILES | IC50 (Rat Steroid C17,20-lyase) [µM] | IC50 (human CYP3A4) [µM] | Testosterone synthesis inhibitory activity (T/C, %) (testosterone synthesis) [%]
1 | CC(C)C(O)(c1ccc2c3c(ccc2c1)C(=O)N(C)C3)c1c[nH]cn1 (single isomer, unassigned; (-)) [Example 16, (−)-7-[1-hydroxy-1-(1H-imidazol-4-yl)-2-methylpropyl]-2-methyl-1,2-dihydro-3H-benzo[e]isoindol-3-one] |  |  | 4.3
2 | CC(C)C(O)(c1ccc2c3c(ccc2c1)C(=O)NC3)c1c[nH]cn1 (stereo not shown) [Example 1, 7-[1-hydroxy-1-(1H-imidazol-4-yl)-2-methylpropyl]-1,2-dihydro-3H-benzo[e]isoindol-3-one] | < 0.01 |  | 6.0
3 | CC(C)C(O)(c1ccc2c3c(ccc2c1)C(=O)N(C)C3)c1c[nH]cn1 (stereo not shown) [Example 2, 7-[1-hydroxy-1-(1H-imidazol-4-yl)-2-methylpropyl]-2-methyl-1,2-dihydro-3H-benzo[e]isoindol-3-one] | 0.015 | > 10 | 
4 | CCN1Cc2c(ccc3cc(C(O)(c4c[nH]cn4)C(C)C)ccc23)C1=O (stereo not shown) [Example 3, 2-ethyl-7-[1-hydroxy-1-(1H-imidazol-4-yl)-2-methylpropyl]-1,2-dihydro-3-benzo[e]isoindol-3-one] | 0.023 | > 10 | 

Now from value to molecule, other results behind:

Row | IC50 (Rat Steroid C17,20-lyase) [µM] | IC50 (human CYP3A4) [µM] | SMILES | Testosterone synthesis inhibitory activity (T/C, %) (testosterone synthesis) [%]
5 | 0.042 | > 10 | CC(C)C(O)(c1ccc2cc3c(cc2c1)CNC3=O)c1c[nH]cn1 (stereo not shown) [Example 10, 6-[1-hydroxy-1-(1H-imidazol-4-yl)-2-methylpropyl]-2,3-dihydro-1H-benzo[f]isoindol-1-one] | 
6 | 0.022 |  | CC(C)CC(O)(c1ccc2c3c(ccc2c1)C(=O)N(C)C3)c1c[nH]cn1 (stereo not shown) [Example 14, 7-[1-hydroxy-1-(1H-imidazol-4-yl)-3-methylbutyl]-2-methyl-1,2-dihydro-3H-benzo[e]isoindol-3-one] | 
